From publication PMC9601670, “Solubility Enhancement, Formulation Development, and Antibacterial Activity of Xanthan-Gum-Stabilized Colloidal Gold Nanogel of Hesperidin against Proteus vulgaris” (Gels, 2022) come the findings set out here.

Converted amounts (≈) assume the structure as drawn.

One may read the MIC as the least concentration at which growth counts as inhibited.

Data set [1] in a line: Solubility study of HSP (shake flask). It counts as physicochemical. The settings on record: for Hesperidin Solubility: shaken 24 h, room temperature. As to the method:
The solubility of HSP was determined by adopting the standard shake flask technique according to the method described by Majumdar and colleagues. The screening of the solution was performed by evaluating the solubility of HSP (10% (w/v) with respect to pH solution. To perform this experiment, 10% w/v of HSP was added to a glass vial containing 5 mL of the chosen solvent and tightly sealed. To ensure homogeneous mixing, the samples were shaken continuously for 24 h in a water bath at room temperature and 50 rpm. After 24 h, samples were centrifuged at 4500 rpm and HSP was assayed in the supernatant. Solubility was determined in water and in buffers with pH values ranging from 1.2 to 6.8. In addition, the effect of XA-stabilized AuNPs on the solubility of hesperidin was examined to determine by how much the solubility was increased.

Data set [2] relates to Proteus vulgaris (MTCC 7299). As to the kind of experiment: Minimum inhibitory concentration (microtiter plate dilution). Format: cell-based. Conditions: P. vulgaris MTCC 7299, 37 °C, 24 h, absorbance 640 nm; method: concentration that inhibited 50% of bacterial growth.
Description: Briefly, stock solutions of XA@AuNPs gel and HSP@XA@AuNPs gel were prepared in water to ensure complete solubilization at a concentration of 1 mg/mL. A total of 100 µL of nutrient broth and Sabouraud dextrose broth was added to wells 1 to 10. XA@AuNPs gel and HSP@XA@AuNPs gel samples (100 µL) were added to the first well. The solution was serially diluted from well 1 to well 10, while 100 µL from well 10 was discarded. Then 100 µL of the bacterial suspension was added to all dilution wells from well 1 to well 10. The overnight bacterial suspension (100 µL) was added to well 11, and 100 µL of sterile broth was added to serve as a positive control or growth control, while 200 µL of sterile nutrient broth and Sabouraud dextrose broth in well 12 served as a negative control or sterility control. The plate was incubated at 37 °C for 24 h. After incubation, absorbance in each well was measured using an ELISA reader (Erba) at a wavelength of 640 nm. The procedure described above was performed for each microbial strain. The concentration of the sample and standard that inhibited 50% of bacterial growth was determined for all microorganisms. All tests were performed in triplicate to minimize error.

For `COc1ccc([C@@H]2CC(=O)c3c(O)cc(O[C@@H]4O[C@H](CO[C@@H]5O[C@@H](C)[C@H](O)[C@@H](O)[C@H]5O)[C@@H](O)[C@H](O)[C@H]4O)cc3O2)cc1O` [HSP, hesperidin], the “Hesperidin Solubility” value in data set [1] (Water) is 4.09 ± 0.20 µg/mL; in data set [1] (XA-stabilized AuNPs as solvent) it was 62.23 ± 3.1 µg/mL; in data set [1] (pH 1.2 buffer), 2.44 ± 0.12 µg/mL; in data set [1] (pH 5.0 buffer), 3.42 ± 0.17 µg/mL; in data set [1] (pH 6.8 buffer) it was 6.19 ± 0.30 µg/mL. In addition, in data set [1] (XA-stabilized AuNPs vs water), the “Solubility increase by addition of XA-stabilized AuNPs compared to water” value was determined as 15 fold. This compound gave an MIC in data set [2] of 9.2 mg/L (≈ 15.1 µM).
